Assay: Binding isotherms of surfactants to block copolymer (ion-selective electrode)
Format: physicochemical
Details: FIG. 1, dodecyl- versus cetyl- substituent
Description: While not wishing to be bound by any particular theory, it is believed that the above-described surfactants and block copolymers of opposite charge form stable complexes due to cooperative binding. (See, e.g., Goddard, In Interactions of Surfactants with Polymers and Proteins. Goddard and Ananthapadmanabhan, Eds., pp. 171 et seq., CRC Press, Boca Raton, Ann Arbor, London, Tokyo, 1992). Cooperative binding occurs in the sense that binding of surfactant molecules to the block copolymer is enhanced by the presence of other molecules of the same or a different surfactant already bound to the same copolymer. According to the cooperative binding mechanism which is believed to underlie this invention, surfactant binds electrostatically to the oppositely charged P-type segments of the block copolymer to form supramolecular complexes. These complexes are cooperatively stabilized by the interactions of the hydrophobic parts of surfactant molecules bound to the same P-type segment with each other. Indeed, it appears that without these hydrophobic interactions, formation of the desired complex would not occur. FIG. 1 presents the binding isotherms for interaction of cetylpyridinium bromide and dodecylpyridinium bromide with the polyethylene oxide-block-poly(sodium methacrylate) block copolymer. […] This binding mechanism is, in particular, characteristic for surface active biological agents. […]

CCCCCCCCCCCC[n+]1ccccc1.[Br-] [dodecylpyridinium bromide]
stability of the complex with polyethylene oxide-block-poly(sodium methacrylate): decreases the stability of the complex more than ten-fold

From patent US7056532B1, “Compositions for delivery of biological agents and methods for the preparation thereof” (Univ. Nebraska Bd. of Regents, priority 1997, dated 2006)
